Laboratory results published in ChEMBL document CHEMBL2150897, “Discovery of DS-8108b, a Novel Orally Bioavailable Renin Inhibitor” (ACS Med Chem Lett, 2012).
Positions count from the first letter of the chain named.

Columns and labels:
[1] = AUC ( 0 to t) in cynomolgus monkey at 3 mg/kg, iv; type: ADME, organism-based, Macaca fascicularis; parameters: dose 3 mg/kg, route intravenous; conditions: plasma
Cynomolgus monkey [2] = experiment: Ex vivo inhibition of plasma renin activity in cynomolgus monkey at 3 mg/kg, po administered after furosemide treatment measured after 24 hrs; type: functional; conditions: Macaca fascicularis
Cathepsin D = Cathepsin D (Homo sapiens, UniProt P07339); experiment: Inhibition of human cathepsin D
Cathepsin D, sequence (P07339 65-162 limits assumed): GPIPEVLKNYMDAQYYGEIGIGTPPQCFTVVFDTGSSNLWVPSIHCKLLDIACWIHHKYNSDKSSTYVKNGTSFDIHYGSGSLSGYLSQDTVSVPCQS
Cathepsin D, sequence (P07339 169-412 limits assumed): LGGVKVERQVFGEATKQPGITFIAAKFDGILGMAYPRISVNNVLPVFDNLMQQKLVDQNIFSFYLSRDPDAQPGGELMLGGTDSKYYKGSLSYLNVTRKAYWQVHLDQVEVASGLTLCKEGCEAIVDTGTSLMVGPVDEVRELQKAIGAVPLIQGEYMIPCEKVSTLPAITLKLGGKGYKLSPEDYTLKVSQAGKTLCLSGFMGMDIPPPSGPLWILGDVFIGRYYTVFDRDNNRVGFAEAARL

[3] = Tmax in cynomolgus monkey at 3 mg/kg, po; type: ADME, organism-based, Macaca fascicularis; parameters: dose 3 mg/kg, route oral; conditions: in vivo
[4] = target: Voltage-gated inwardly rectifying potassium channel KCNH2 (Homo sapiens, UniProt Q12809); experiment: Inhibition of human ERG at 100 uM
Voltage-gated inwardly rectifying potassium channel KCNH2, sequence (Q12809 whole entry): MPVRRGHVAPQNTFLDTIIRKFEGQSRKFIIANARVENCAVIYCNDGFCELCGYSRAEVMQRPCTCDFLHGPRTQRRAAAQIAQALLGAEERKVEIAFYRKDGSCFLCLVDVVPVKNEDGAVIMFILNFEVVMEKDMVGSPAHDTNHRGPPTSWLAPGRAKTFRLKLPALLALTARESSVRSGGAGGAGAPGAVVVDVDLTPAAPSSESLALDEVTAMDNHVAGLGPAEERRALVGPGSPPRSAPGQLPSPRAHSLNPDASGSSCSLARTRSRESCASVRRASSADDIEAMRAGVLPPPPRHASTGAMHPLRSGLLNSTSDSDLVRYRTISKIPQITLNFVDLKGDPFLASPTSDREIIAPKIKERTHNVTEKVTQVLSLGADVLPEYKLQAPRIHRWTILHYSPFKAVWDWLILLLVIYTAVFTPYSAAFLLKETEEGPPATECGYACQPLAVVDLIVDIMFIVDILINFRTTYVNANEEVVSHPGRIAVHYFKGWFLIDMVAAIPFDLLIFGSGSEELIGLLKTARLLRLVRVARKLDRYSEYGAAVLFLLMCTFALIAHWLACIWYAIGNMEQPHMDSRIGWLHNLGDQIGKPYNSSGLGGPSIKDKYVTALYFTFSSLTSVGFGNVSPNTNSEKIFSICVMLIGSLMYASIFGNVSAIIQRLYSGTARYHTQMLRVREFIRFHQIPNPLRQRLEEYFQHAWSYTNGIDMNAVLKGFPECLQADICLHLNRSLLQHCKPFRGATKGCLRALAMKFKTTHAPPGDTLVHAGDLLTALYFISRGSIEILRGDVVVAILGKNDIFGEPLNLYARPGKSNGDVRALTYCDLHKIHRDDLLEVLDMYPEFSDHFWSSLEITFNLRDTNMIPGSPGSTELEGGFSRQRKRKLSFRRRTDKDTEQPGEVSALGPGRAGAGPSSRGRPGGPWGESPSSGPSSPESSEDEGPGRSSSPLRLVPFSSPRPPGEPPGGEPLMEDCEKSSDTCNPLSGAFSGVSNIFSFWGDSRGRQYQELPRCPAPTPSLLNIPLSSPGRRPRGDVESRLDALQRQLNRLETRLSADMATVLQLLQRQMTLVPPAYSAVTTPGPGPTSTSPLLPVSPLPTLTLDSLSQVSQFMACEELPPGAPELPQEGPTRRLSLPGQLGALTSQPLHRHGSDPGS

Cynomolgus monkey [5] = experiment: Ex vivo inhibition of plasma renin activity in cynomolgus monkey at 3 to 10mg/kg, po administered after furosemide treatment measured after 24 hrs relative to aliskiren hemifumarate; type: functional, Macaca fascicularis
[6] = Half life in cynomolgus monkey at 3 mg/kg, iv; type: ADME, organism-based, Macaca fascicularis; parameters: dose 3 mg/kg, route intravenous; conditions: in vivo
Renin [7] = target: T1, Renin (Homo sapiens, UniProt P00797); experiment: Inhibition of human recombinant renin compound treated for 10 mins before substrate addition measured after 90 mins by fluorescence method
T1 sequence (P00797 whole entry): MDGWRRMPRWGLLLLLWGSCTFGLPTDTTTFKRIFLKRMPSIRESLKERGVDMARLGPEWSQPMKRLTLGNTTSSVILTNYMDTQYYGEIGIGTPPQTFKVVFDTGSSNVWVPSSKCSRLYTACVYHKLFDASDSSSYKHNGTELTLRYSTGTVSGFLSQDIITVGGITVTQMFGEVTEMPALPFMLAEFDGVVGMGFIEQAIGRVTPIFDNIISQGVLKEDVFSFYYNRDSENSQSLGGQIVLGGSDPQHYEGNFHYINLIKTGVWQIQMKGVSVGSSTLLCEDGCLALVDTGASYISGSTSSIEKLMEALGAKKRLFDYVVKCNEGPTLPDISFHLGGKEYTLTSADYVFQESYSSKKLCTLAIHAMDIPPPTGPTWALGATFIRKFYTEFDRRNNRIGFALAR

Cynomolgus monkey [8] = experiment: Cardiotoxicity in telemetered cynomolgus monkey assessed as change in QRS width at 1000 mg/kg, po administered as single dose measured up to 24 hrs; type: toxicity, organism-based, Macaca fascicularis; parameters: dose 1000 mg/kg, route oral; conditions: in vivo
[9] = Half life in cynomolgus monkey at 10 mg/kg, po; type: ADME, organism-based, Macaca fascicularis; parameters: dose 10 mg/kg, route oral; conditions: in vivo
[10] = Cmax in cynomolgus monkey at 10 mg/kg, po; type: ADME, organism-based, Macaca fascicularis; parameters: dose 10 mg/kg, route oral; conditions: in vivo
[11] = Oral bioavailability in cynomolgus monkey at 3 mg/kg; type: ADME, organism-based, Macaca fascicularis; conditions: in vivo
[12] = Tmax in cynomolgus monkey at 10 mg/kg, po; type: ADME, organism-based, Macaca fascicularis; parameters: dose 10 mg/kg, route oral; conditions: in vivo
[13] = Clearance in cynomolgus monkey at 3 mg/kg, iv; type: ADME, organism-based, Macaca fascicularis; parameters: dose 3 mg/kg, route intravenous; conditions: in vivo
Salmonella typhimurium [14] = experiment: Mutagenic activity in Salmonella typhimurium in presence of S9 mixture; type: toxicity, organism-based; conditions: salmonella enterica subsp. enterica serovar typhimurium
Cynomolgus monkey [15] = experiment: Antihypertensive activity in po dosed cynomolgus monkey assessed as reduction in mean arterial pressure administered as single dose 3 days prior to furosemide treatment measured up to 12 hrs; type: functional, organism-based; conditions: Macaca fascicularis; Artery
[16] = AUC ( 0 to t) in cynomolgus monkey at 10 mg/kg, po; type: ADME, organism-based, Macaca fascicularis; parameters: dose 10 mg/kg, route oral; conditions: plasma
[17] = target: Sodium channel protein type 5 subunit alpha (Homo sapiens, UniProt Q14524); experiment: Inhibition of human Nav 1.5 at 100 uM
Sodium channel protein type 5 subunit alpha, sequence (Q14524 whole entry): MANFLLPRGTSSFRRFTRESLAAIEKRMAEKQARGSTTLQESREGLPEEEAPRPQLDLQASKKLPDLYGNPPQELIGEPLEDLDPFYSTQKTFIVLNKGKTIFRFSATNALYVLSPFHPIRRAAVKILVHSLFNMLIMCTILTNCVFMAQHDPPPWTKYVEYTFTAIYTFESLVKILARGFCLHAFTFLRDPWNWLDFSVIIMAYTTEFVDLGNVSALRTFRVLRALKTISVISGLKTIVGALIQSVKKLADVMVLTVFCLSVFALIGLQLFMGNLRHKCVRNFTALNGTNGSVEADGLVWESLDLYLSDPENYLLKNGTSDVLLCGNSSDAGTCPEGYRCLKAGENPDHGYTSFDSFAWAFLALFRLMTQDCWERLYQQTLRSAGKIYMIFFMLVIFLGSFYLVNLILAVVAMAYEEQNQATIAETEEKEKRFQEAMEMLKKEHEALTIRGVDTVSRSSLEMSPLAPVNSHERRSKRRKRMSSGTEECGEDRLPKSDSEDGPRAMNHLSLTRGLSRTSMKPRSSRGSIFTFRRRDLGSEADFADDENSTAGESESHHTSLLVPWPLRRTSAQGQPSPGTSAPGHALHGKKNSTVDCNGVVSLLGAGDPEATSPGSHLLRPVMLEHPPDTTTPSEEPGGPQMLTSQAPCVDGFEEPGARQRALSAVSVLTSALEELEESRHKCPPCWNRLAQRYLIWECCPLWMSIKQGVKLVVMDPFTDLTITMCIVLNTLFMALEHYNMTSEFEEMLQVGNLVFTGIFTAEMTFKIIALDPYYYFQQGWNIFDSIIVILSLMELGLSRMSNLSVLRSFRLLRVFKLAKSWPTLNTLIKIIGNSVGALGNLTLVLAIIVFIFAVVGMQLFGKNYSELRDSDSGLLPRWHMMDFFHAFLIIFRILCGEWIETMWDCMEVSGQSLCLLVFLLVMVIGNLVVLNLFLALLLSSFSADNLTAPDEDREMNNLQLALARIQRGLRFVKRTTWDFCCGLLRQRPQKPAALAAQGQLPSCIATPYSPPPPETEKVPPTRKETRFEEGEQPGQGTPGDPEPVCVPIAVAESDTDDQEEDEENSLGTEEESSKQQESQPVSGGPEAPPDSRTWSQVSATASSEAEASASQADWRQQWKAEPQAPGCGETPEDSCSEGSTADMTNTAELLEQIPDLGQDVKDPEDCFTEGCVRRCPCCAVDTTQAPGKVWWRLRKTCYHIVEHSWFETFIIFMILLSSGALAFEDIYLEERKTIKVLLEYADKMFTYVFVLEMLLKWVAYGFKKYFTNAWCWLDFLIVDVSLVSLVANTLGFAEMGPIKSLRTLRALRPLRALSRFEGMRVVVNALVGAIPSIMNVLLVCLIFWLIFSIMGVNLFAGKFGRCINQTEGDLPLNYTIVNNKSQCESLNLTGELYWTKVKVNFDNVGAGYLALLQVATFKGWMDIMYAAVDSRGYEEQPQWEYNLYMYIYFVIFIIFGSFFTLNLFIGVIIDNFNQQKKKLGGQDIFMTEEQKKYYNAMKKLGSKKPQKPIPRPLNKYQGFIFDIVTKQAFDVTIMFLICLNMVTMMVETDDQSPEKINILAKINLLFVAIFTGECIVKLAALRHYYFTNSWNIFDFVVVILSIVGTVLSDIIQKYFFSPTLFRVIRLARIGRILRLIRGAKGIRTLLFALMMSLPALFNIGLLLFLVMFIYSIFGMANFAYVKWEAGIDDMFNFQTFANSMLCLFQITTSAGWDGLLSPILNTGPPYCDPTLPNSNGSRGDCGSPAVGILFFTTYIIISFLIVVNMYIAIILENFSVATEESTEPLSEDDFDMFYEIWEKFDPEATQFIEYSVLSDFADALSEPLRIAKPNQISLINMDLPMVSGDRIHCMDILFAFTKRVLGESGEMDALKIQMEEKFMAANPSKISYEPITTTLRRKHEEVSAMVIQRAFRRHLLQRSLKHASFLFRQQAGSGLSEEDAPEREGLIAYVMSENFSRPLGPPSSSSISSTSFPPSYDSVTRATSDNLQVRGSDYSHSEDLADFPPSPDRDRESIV

Renin [18] = target: T2, Renin (Macaca fascicularis, UniProt Q6DLS0); experiment: Inhibition of cynomolgus monkey plasma renin activity after 60 mins by competitive RIA
T2 sequence (Q6DLS0 whole entry): T1 sequence (P00797 whole entry) with T68A, I214L, S235A

Renin [19] = target: T1, Renin; experiment: Inhibition of human plasma renin activity after 60 mins by competitive RIA
[20] = Inhibition of Cytochrome P450; type: ADME
[21] = Half life in cynomolgus monkey at 3 mg/kg, po; type: ADME, organism-based, Macaca fascicularis; parameters: dose 3 mg/kg, route oral; conditions: in vivo
Cynomolgus monkey [22] = experiment: Ex vivo inhibition of plasma renin activity in po dosed cynomolgus monkey administered after furosemide treatment measured up to 24 hrs; type: functional, organism-based; conditions: Macaca fascicularis
[23] = AUC ( 0 to t) in cynomolgus monkey at 3 mg/kg, po; type: ADME, organism-based, Macaca fascicularis; parameters: dose 3 mg/kg, route oral; conditions: plasma
Salmonella typhimurium [24] = experiment: Mutagenic activity in Salmonella typhimurium; type: toxicity, organism-based; conditions: salmonella enterica subsp. enterica serovar typhimurium
[25] = Inhibition of HIV protease; parameters: species or system Human immunodeficiency virus
[26] = Oral bioavailability in cynomolgus monkey at 10 mg/kg; type: ADME, organism-based, Macaca fascicularis; conditions: in vivo
[27] = Volume of distribution at steady state in cynomolgus monkey at 3 mg/kg, iv; type: ADME, organism-based, Macaca fascicularis; parameters: dose 3 mg/kg, route intravenous; conditions: in vivo, read-out: Vdss
Cynomolgus monkey [28] = experiment: Cardiotoxicity in telemetered cynomolgus monkey assessed as change in QTc interval at 1000 mg/kg, po administered as single dose measured up to 24 hrs; type: toxicity, organism-based, Macaca fascicularis; parameters: dose 1000 mg/kg, route oral; conditions: in vivo
Cynomolgus monkey [29] = experiment: Ex vivo inhibition of plasma renin activity in cynomolgus monkey at 10 mg/kg, po administered after furosemide treatment measured after 24 hrs; type: functional; conditions: Macaca fascicularis
Cathepsin E = target: T3, Cathepsin E (Homo sapiens, UniProt P14091); experiment: Inhibition of human cathepsin E
T3 sequence (P14091 whole entry): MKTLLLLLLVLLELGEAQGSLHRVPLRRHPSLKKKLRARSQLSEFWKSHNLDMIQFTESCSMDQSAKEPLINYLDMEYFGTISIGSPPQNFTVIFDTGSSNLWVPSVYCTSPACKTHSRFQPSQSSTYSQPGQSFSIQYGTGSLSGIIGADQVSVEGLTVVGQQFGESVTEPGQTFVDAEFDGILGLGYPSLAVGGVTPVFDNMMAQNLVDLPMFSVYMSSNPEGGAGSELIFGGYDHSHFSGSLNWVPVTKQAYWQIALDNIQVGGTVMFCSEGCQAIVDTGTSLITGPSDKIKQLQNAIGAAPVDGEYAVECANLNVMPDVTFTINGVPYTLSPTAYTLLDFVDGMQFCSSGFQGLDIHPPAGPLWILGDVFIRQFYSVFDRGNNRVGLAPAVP

[30] = Cmax in cynomolgus monkey at 3 mg/kg, po; type: ADME, organism-based, Macaca fascicularis; parameters: dose 3 mg/kg, route oral; conditions: in vivo
[31] = Inhibition of human pepsin

SMILES: CC[C@H](C[C@H](O)[C@@H](N)CN1CC(=O)N(c2ccccc2Cl)CC1(C)C)C(=O)NC1C2CC3CC1CC(O)(C3)C2.O.O=C(O)/C=C/C(=O)O (stereo partly drawn)
- AUC(0-t) [1]: 15500 ng·h/mL
- inhibition in vivo at 3 mg/kg (Cynomolgus monkey [2]): 65%
- IC50 (Cathepsin D): > 10000 nM
- Tmax [3]: 3 h
- inhibition (INH) [4]: Not Active
- Ratio (Cynomolgus monkey [5]): 3
- half-life [6]: 7.8 h
- IC50 (Renin [7]): 0.9 nM
- Activity (Cynomolgus monkey [8]): Non-toxic
- half-life [9]: 5.4 h
- Cmax [10]: 399 ng/mL
- bioavailability [11]: 4.1%
- Tmax [12]: 2.3 h
- clearance [13]: 3.59 mL/min/kg
- Activity (Salmonella typhimurium [14]): Non-toxic
- Activity (Cynomolgus monkey [15]): Dose-dependent effect
- AUC(0-t) [16]: 2880 ng·h/mL
- inhibition (INH) [17]: Not Active
- IC50 (Renin [18]): 6.3 nM
- IC50 (Renin [19]): 1.9 nM
- IC50 [20]: > 10000 nM
- half-life [21]: 5.1 h
- inhibition (Cynomolgus monkey [22]): Dose-dependent effect
- AUC(0-t) [23]: 685 ng·h/mL
- Activity (Salmonella typhimurium [24]): Non-toxic
- IC50 [25]: > 10000 nM
- bioavailability [26]: 5.3%
- Vd [27]: 1.12 L/kg
- Activity (Cynomolgus monkey [28]): Non-toxic
- inhibition in vivo at 10 mg/kg (Cynomolgus monkey [29]): 65%
- IC50 (Cathepsin E): > 10000 nM
- Cmax [30]: 102 ng/mL
- IC50 [31]: > 10000 nM
